US10071110B2, “Phosphonate compounds” (priority 1999, dated 2018)
pEC50: −log10 of the molar value. Where two headings read alike, the source gives them in different places.

Key:
[1] = system: patients with steroid-induced osteoporosis; assay: Stimulation of bone formation in humans with steroid-induced osteoporosis; type: in vivo, human; conditions: oral 0.1 to 100 mg/kg/day, one month to one year, vs placebo
[2] = system: HSV-1; assay: HSV-1 antiviral assay, HSV DNA quantified by nucleic acid hybridization in MRC-5 cells; type: cell-based; conditions: CC50/EC50 (Table 7)
[3] = system: Human cytomegalovirus (HCMV); assay: HCMV antiviral assay, HCMV DNA quantified by DNA hybridization in MRC-5 cells; type: cell-based; conditions: for Selectivity Index: CC50/EC50, Human CMV in MRC-5 (Table 2)
[4] = system: postmenopausal women; conditions: oral 0.1 to 100 mg/kg/day, two to three years, vs placebo
[5] = system: HIV-1; conditions: Human immunodeficiency virus 1, 72 h, read-out: EC50, in HIV-1 plaque reduction assay
[6] = Cytotoxicity in CEM cells (CC50); type: cell-based; conditions: human; CEM cells (Table 1)
[7] = in vitro; conditions: human
[8] = in vitro; conditions: African green monkey
[9] = Cytotoxicity of test compounds in vitro, visual estimate of 50% reduction in cell number; conditions: human, MRC-5 human lung fibroblast cells
[10] = system: MRC-5 human lung fibroblast cells; assay: as above; conditions: MRC-5 cells
[11] = system: Calvarial cells; assay: Dexamethasone-induced apoptosis in calvarial cells, trypan blue; type: cell-based, mice; conditions: pretreatment at 10^−8 or greater for 1 hour, then 6 hours 10^−4 dexamethasone
[12] = system: MLO-Y4 osteocytic cells; conditions: at 10^−8 to 10^−5 M; 1 hour pretreatment, then 6 hours 10^−4 M dexamethasone
[13] = system: ovariectomized rats; conditions: subcutaneous 0 to 8 mg/kg/day, four to twelve weeks, vs ovariectomized controls
[14] = system: HT4-6C cells; assay: Cytotoxicity by the method of Hostetler et al. (HIV study); conditions: Table 6

In the case of “1-O-octadecyloxypropyl-amino-olpadronate”, the bone density [1] was “bone density is increased” and the fractures [1] was “fractures are decreased”.
With `CCCCCCCCCCCCCCCCCCOCCOP(=O)(O)COC(CO)Cn1ccc(N)nc1=O` (stereo not drawn) [1-O-octadecylethanediol-2-CDV] the “Selectivity Index” value [2] was 105,000.
With `CCCCCCCCCCCCCCCCCCOCCOP1(=O)COC(Cn2ccc(N)nc2=O)CO1` (stereo not drawn) [1-O-octadecylethanediol-2-cCDV] the “Selectivity Index” value [3] was 1 × 10^6 and the “Selectivity Index” value [2] was 40,000.
In the case of `CCCCCCCCCCCCCCCCCCOCCCOP(=O)(O)C(O)(CCCN)P(=O)(O)O` (stereo not drawn) [1-O-octadecyloxypropyl alendronate, 1-O-octadecyloxypropyl-alendronate], the fractures [4] was “fewer fractures” and the “rate of reduction in bone density” value [4] was “lesser rate of reduction in bone density than the placebo group”.
In the case of `CCCCCCCCCCCCCCCCCCOCCCOP(=O)(O)CO[C@H](CO)Cn1ccc(N)nc1=O` [1-O-octadecylpropanediol-3-CDV], the “Selectivity Index” value [3] was 1 × 10^6.
For `CCCCCCCCCCCCCCCCCCOCCCOP1(=O)COC(Cn2ccc(N)nc2=O)CO1` (stereo not drawn) [1-O-octadecylpropanediol-3-cCDV], the “Selectivity Index” value [3] was 1 × 10^6 and the “Selectivity Index” value [2] was 970.
Work on `Cc1cn([C@H]2C[C@H](N=[N+]=[N-])[C@@H](CO)O2)c(=O)[nH]c1=O` [AZT, zidovudine] yielded a pEC50 [5] of 8.15.
With `Nc1ccn(C[C@@H](CO)OCP(=O)(O)O)c(=O)n1` [CDV, cidofovir] the CC50 [6] was 857 µM, the CC50 [7] was 89.8 µM and the CC50 [8] was > 100 µM. The CC50 at 5 days [9] was > 1000 µM and the CC50 ([10]; as in Example 17 (Table 7)) was > 1000 µM.
For `CCCCCCCCCCCCCCCCOCCCOP(=O)(O)CO[C@H](CO)Cn1ccc(N)nc1=O` [HDP-CDV], the “Selectivity Index” value [3] was 5 × 10^6.
For `CCCCCCCCCCCCCCCCOCCCOP(=O)(O)C(O)(CCCN)P(=O)(O)O` (stereo not drawn) [HDP-alendronate, 1-O-Hexadececylpropanediol-3-alendronate], the “effect on dexamethasone-induced increase in % dead cells” value [11] was “abolished the dexamethasone-induced increase in % dead cells”, the “effect on dexamethasone-induced apoptosis (percentage of dead cells)” value [12] was “inhibits dexamethasone-induced apoptosis” and the “bone mass loss (ash weight of the femora)” value [13] was “less bone mass loss than the ovariectomized controls”.
In the case of `CCCCCCCCCCCCCCCCOP1(=O)COC(Cn2ccc(N)nc2=O)CO1` (stereo not drawn) [Hexadecyl-cCDV, hexadecyl-cCDV], the “Selectivity Index” value [3] was 163.
In the case of `Nc1ccn(C[C@H]2COP(=O)(O)CO2)c(=O)n1` [cCDV, cyclic cidofovir], the CC50 [6] was > 1000 µM, the CC50 [7] was > 100 µM and the CC50 [8] was > 100 µM. The CC50 at 5 days [9] was > 1000 µM and the CC50 ([10]; as in Example 17 (Table 7)) was > 1000 µM.
hexadecyloxypropyl-adefovir [HDP-ADV] showed a pEC50 ([3]; Human CMV replication in MRC-5 human lung fibroblasts, DNA reduction (Table 2), read-out: EC50) of 7.00, a pEC50 ([3]; preliminary experiments (Table 1), MRC-5 cells, 5 days, read-out: HCMV EC50) of 8.00 and a CC50 [14] of 6.5 µM. For the same compound, the CC50 ([10]; 5 days (Table 2)) was 6.5 µM.
